What was measured:
SKH-1 hairless mice = test: SUV-induced mouse skin tumorigenesis, early-stage prevention model; format: in vivo
Procedure: Tumor volume was calculated according to the following formula: tumor volume (mm^3)=length×width×height×0.52. […] For 4B and 4C, data are represented as mean values±S.D. and significant differences were determined by one-way ANOVA. The asterisk (*) indicates a significant decrease compared to the SUV only or the vehicle and SUV-treated groups (***, p<0.001). […] Dorsal trunk skin samples were harvested and stained with H&E (left panels) or with an antibody to detect PCNA (right panels). […] Expression of PCNA was quantified using Image-Pro Plus software and stained cells were counted from 5 separate areas on each slide (lower panel). An average of 3 samples was calculated per group. Data are expressed as mean percent of control±S.D. and the asterisks indicate a significant difference in PCNA expression (***, p<0.001). […] The expression levels of phosphorylated and total proteins were analyzed by Western blot.
Mice were weighed once a week until the end of the study at week 28. […] SKH-1 hairless mice were treated as described in Materials and Methods. The mice in the control groups (n=9) received no vehicle/no SUV (n=3), vehicle/no SUV (n=3), or 1 mg […]/no SUV (n=3), respectively. The mice in the SUV treated group received SUV only (n=12) and the mice in the vehicle/SUV-treated group (n=12) were treated with oil-in-water emulsion cream before SUV exposure. The mice in the 0.1 mg/SUV or 1 mg/SUV groups (n=12 each) received treatment with compound 1 (0.1 or 1 mg, respectively) before SUV exposure. The frequency of irradiation was set at 3 times a week for 15 weeks. The respective doses of oil-in-water emulsion cream or compound 1 were applied topically to the dorsal area. Tumor incidence and multiplicity were recorded weekly until the end of the experiment at week 28.
Female SKH-1 hairless mice were purchased from Charles River and were acclimated for 2 weeks before the study and had free access to food and water. All animals were maintained according to the guidelines approved by the University of Minnesota Institutional Animal Care and Use Committee (IACUC). The animals were housed in climate-controlled quarters with a 12-h light/dark cycle. The skin carcinogenesis experiments were conducted using 6-8 wk old mice with a mean body weight of 25 g. Skin carcinogenesis was induced by a solar simulated ultraviolet irradiation system. The SUV irradiation source (Q-Lab Corporation, Westlake, Ohio) emitted at wavelengths of 295 to 365 nm and the peak emission was 340 nm.
The two mouse models included an early-stage prevention model and a late-stage prevention model. These models were designed for detecting either the respective chemopreventive effect or the potential therapeutic value of compound 1 against SUV-induced skin damage and carcinogenesis. For the early-stage prevention study, SKH-1 mice were divided into 7 groups and an oil-in-water emulsion cream was applied topically as the vehicle with or without compound 1. The three control groups included 1) mice (n=3) not treated with vehicle or SUV; 2) mice (n=3) treated with vehicle but no SUV; and 3) mice (n=3) treated with 1 mg compound 1 in vehicle but not exposed to SUV. Experimental groups included 1) mice (n=12) treated with SUV only; 2) mice (n=12) treated with vehicle followed by SUV 1 h later; 3) mice (n=12 each group) treated with topical application of 0.1 or 1 mg of compound 1 in vehicle 1 h before SUV irradiation. The topical applications and SUV treatment were applied 3 times a week for a total of 15 weeks. At 15 weeks, SUV irradiation was discontinued and topical applications continued with tumor growth monitoring for an additional 13 weeks until week 28 at which time mice were euthanized and tissues harvested.
At week 1, mice were irradiated with SUV at a dose of 36 kJ/m^2 UVA and 1.8 kJ/m^2 UVB. At week 6, the dose of SUV reached 60 kJ/m^2 UVA and 2.9 kJ/m^2 UVB and this dose was maintained from week 6 to week 15. […]

[1] = Absorbance scan by spectrophotometer; format: physicochemical
Procedure: Absorbance wavelengths of compound 1 were scanned using a Beckman DU®800 spectrophotometer.
In order to confirm whether compound 1 absorbs at UVA or UVB wavelengths, its ability to absorb SUV light between […] was examined. […] In addition, an anchorage-independent growth assay was performed to assess the effect of compound 1 on cell transformation. […] Similarly, cell proliferation was determined by a crystal violet staining assay.

peak absorption ([1]; scanned between 250 and 320 nm): 259 nm
wavelength range of main light absorption ([1]; scanned between 250 and 320 nm): 250-275 nm
Structure (SMILES): O=C1Nc2ccc(C34CC5CC(CC(C5)C3)C4)cc2C1=NO [compound 1, 5-(adamantan-1-yl)-3-(hydroxyimino)indolin-2-one]
SUV-induced tumor volume (SKH-1 hairless mice; early-stage model (FIG. 4B)): suppresses
SUV-induced epidermal thickness (SKH-1 hairless mice; early-stage model, 0.1 or 1 mg, H&E): decreased
SUV-induced phosphorylation of ERK1/2, p38, and JNKs in mouse skin (SKH-1 hairless mice; early-stage model, Western blot): dramatically suppressed
expression of PCNA (SKH-1 hairless mice; early-stage model, immunohistochemistry of skin): decreased
average number of SUV-induced tumors (SKH-1 hairless mice; early-stage model, week 28 (FIG. 4C)): suppresses
SUV-induced papilloma formation (SKH-1 hairless mice; early-stage prevention group, topical 0.1 or 1 mg): total inhibition
body weight (SKH-1 hairless mice; topical application on dorsal skin, early-stage model, to week 28): no effect on body weight
absorbance of UVA or UVB [1]: did not show significant absorbance of UVA or UVB
